Drawing on US10538487B2, “Sulfonylureas and related compounds and use of same” (priority 2015, dated 2020), this text covers IC50 for 29 compounds.

pIC50: −log10 of the molar value. Where only a bound is given, the exact number is not on record here.

Sequence of NLRP3 inflammasome (Mus musculus, UniProt Q8R4B8) (Q8R4B8 whole entry): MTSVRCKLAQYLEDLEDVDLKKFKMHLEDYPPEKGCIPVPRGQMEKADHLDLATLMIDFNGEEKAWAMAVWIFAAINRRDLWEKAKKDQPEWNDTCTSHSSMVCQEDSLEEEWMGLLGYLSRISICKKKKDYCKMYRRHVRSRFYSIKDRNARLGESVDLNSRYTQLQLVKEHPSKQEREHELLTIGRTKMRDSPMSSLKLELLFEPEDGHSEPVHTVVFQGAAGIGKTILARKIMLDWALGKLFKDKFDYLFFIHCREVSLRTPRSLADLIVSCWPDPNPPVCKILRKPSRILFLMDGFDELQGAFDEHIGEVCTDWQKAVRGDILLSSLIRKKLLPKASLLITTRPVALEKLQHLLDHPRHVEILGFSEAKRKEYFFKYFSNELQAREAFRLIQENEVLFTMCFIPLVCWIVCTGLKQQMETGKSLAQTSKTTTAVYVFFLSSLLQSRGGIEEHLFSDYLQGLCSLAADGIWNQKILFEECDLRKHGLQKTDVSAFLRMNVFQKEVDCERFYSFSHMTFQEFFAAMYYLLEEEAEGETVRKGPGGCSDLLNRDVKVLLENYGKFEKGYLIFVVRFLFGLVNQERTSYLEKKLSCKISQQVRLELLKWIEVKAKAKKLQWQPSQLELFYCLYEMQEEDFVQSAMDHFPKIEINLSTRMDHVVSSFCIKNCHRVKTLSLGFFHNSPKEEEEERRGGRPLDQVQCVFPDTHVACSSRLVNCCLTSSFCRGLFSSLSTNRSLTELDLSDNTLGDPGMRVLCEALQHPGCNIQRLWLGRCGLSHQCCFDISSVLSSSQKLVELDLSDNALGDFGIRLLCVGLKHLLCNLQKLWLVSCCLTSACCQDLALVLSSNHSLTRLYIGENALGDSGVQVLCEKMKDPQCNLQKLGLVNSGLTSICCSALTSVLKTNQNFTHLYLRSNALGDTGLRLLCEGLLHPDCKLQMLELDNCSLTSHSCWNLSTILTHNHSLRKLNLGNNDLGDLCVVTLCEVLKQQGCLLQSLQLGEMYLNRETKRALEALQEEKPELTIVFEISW

One assay concerns the target NLRP3 inflammasome (Mus musculus, UniProt Q8R4B8). The assay can be described thus: Inhibition of IL-1β release, NLRP3 inflammasome activation assay in BMDM. It is filed as cell-based. Conditions: inhibition of IL-1β release, class symbols, read-out: Avg. IL-1β IC50 Murine BMDM. Here is the method: (§1) The following assays can be used to determine inhibitory activity of test compounds on the NLRP3 inflammasome using common stimuli such as adenosine triphosphate, nigericin, LeuLeu-OMe or monosodium urate crystals (MSU).
Mouse bone marrow-derived macrophages (BMDM) were derived from bone marrow progenitors isolated from the femurs and tibias of C57BL/6 mice.
BMDM are seeded at 1×10^5/ml. The following day the overnight medium is replaced and cells are stimulated with Ultrapure lipopolysaccharide from Escherichia coli K12 strain (InvivoGen) for 3 h. Medium is removed and replaced with serum free medium (SFM) containing test compound 30 min prior to NLRP3 stimulation. […] ATP can be sourced from Sigma Aldrich, nigericin and MSU from Invivogen and LeuLeu-Ome from Chem-Impex International.
(§2) For ELISA and cell death assays cells are seeded in 96 well plates. Supernatants are removed and analysed using ELISA kits according to the manufacturer's instructions (DuoSet® R&D Systems, ReadySetGo!® eBioscience, BD OptEIA™, or Perkin Elmer AlphaLISA®). Cell death is assessed by measurement of LDH release relative to a 100% cell lysis control using the CytoTox96® non-radioactive cytotoxicity assay (Promega).
One may read the pIC50 as the IC50 on a negative log10 scale, so that one unit is a factor of ten. With `CC(C)(O)c1coc(S(=O)(=O)NC(=O)Nc2c(C3CC3)cc(Cl)cc2C2CC2)c1` [N-((4-chloro-2,6-dicyclopropylphenyl)carbamoyl)-4-(2-hydroxypropan-2-yl)furan-2-sulfonamide], the pIC50 is greater than 7.00.
Same read-out and setting: the same measure for `CC(C)(O)c1coc(S(=O)(=O)NC(=O)Nc2c3ccccc3cc3ccccc23)c1` [N-(anthracen-9-ylcarbamoyl)-4-(2-hydroxypropan-2-yl)furan-2-sulfonamide]: greater than 5.00; for `Cc1oc(S(=O)(=O)NC(=O)Nc2c3c(cc4c2CCC4)CCC3)cc1C(C)(C)O` [N-((1,2,3,5,6,7-hexahydro-s-indacen-4-yl)carbamoyl)-4-(2-hydroxypropan-2-yl)-5-methylfuran-2-sulfonamide]: greater than 7.00.
Take `CC(C)(O)c1coc(S(=O)(=O)NC(=O)Nc2c3ccoc3cc3ccoc23)c1` [N-(benzo[1,2-b:4,5-b′]difuran-4-ylcarbamoyl)-4-(2-hydroxypropan-2-yl)furan-2-sulfonamide]: the pIC50 is greater than 7.00.
The same measure, in the same setting: the same measure for `CC(C)c1cc(Cl)cc(C(C)C)c1NC(=O)NS(=O)(=O)c1ccc2c(c1)CCCC2` [N-((4-chloro-2,6-diisopropylphenyl)carbamoyl)-5,6,7,8-tetrahydronaphthalene-2-sulfonamide]: greater than 7.00.
On the same count and under the same terms, as for `CC(C)(O)c1coc(S(=O)(=O)NC(=O)Nc2cccc3c2OCC3)c1` [N-((2,3-dihydrobenzofuran-7-yl)carbamoyl)-4-(2-hydroxypropan-2-yl)furan-2-sulfonamide], the figure is greater than 4.30; as for `COc1ccccc1NC(=O)NS(=O)(=O)c1cc(C(C)(C)O)co1` [4-(2-hydroxypropan-2-yl)-N-((2-methoxyphenyl)carbamoyl)furan-2-sulfonamide], greater than 5.00; as for `Cc1cc(Cl)cc(C)c1NC(=O)NS(=O)(=O)c1cc(C(C)(C)O)co1` [N-((4-chloro-2,6-dimethylphenyl)carbamoyl)-4-(2-hydroxypropan-2-yl)furan-2-sulfonamide], greater than 5.00.
The same measure, in the same setting: as for `O=C(Nc1c2c(cc3c1CCC3)CCC2)NS(=O)(=O)c1ccc([N+](=O)[O-])cc1` [N-((1,2,3,5,6,7-hexahydro-s-indacen-4-yl)carbamoyl)-4-nitrobenzenesulfonamide], the figure is greater than 7.00; as for `CC(C)(O)c1coc(S(=O)(=O)NC(=O)Nc2cccc3c2OCCO3)c1` [N-((2,3-dihydrobenzo[b][1,4]dioxin-5-yl)carbamoyl)-4-(2-hydroxypropan-2-yl)furan-2-sulfonamide], greater than 5.00.

The assay is the same for the next values; noted with them: inhibition of IL-1β release, numeric bounds, read-out: Avg. IL-1β IC50 Murine BMDM.
As to `Cc1cc(Cl)cc(C(F)(F)F)c1NC(=O)NS(=O)(=O)c1cc(C(C)(C)O)co1` [N-((4-chloro-2-methyl-6-(trifluoromethyl)phenyl)carbamoyl)-4-(2-hydroxypropan-2-yl)furan-2-sulfonamide], the pIC50 was less than 5.00.
Same read-out and setting: as for `CC(C)n1ccc(S(=O)(=O)NC(=O)Nc2c(C(=O)N(C)C)cc(Cl)cc2C2CC2)n1` [5-chloro-3-cyclopropyl-2-(3-((1-isopropyl-1H-pyrazol-3-yl)sulfonyl)ureido)-N,N-dimethylbenzamide], the figure is less than 5.00.

The same assay, now with this note: select compounds of the first aspect (Table 10), read-out: BMDM IC50 vs NLRP3.
For the compound `O=C(Nc1c2c(cc3c1CCC3)CCC2)NS(=O)(=O)c1ccc([N+](=O)[O-])cc1` [drawing 368], the pIC50 was 7.37.
For the compound `Cc1cnc(C(=O)NCCc2ccc(S(=O)(=O)NC(=O)Nc3c4c(cc5c3CCC5)CCC4)cc2)cn1` [drawing 359], the pIC50 was 6.49.

For another assay, the target named is NLRP3 inflammasome (Homo sapiens, UniProt Q96P20). The assay can be described thus: Inhibition of IL-1β release, NLRP3 inflammasome activation assay in HMDM. In kind it is cell-based. To be noted: commercial compounds (Table 9), read-out: HMDM IC50 vs NLRP3. Here is the method: as §1
Sequence of NLRP3 inflammasome (Homo sapiens, UniProt Q96P20) (Q96P20 whole entry): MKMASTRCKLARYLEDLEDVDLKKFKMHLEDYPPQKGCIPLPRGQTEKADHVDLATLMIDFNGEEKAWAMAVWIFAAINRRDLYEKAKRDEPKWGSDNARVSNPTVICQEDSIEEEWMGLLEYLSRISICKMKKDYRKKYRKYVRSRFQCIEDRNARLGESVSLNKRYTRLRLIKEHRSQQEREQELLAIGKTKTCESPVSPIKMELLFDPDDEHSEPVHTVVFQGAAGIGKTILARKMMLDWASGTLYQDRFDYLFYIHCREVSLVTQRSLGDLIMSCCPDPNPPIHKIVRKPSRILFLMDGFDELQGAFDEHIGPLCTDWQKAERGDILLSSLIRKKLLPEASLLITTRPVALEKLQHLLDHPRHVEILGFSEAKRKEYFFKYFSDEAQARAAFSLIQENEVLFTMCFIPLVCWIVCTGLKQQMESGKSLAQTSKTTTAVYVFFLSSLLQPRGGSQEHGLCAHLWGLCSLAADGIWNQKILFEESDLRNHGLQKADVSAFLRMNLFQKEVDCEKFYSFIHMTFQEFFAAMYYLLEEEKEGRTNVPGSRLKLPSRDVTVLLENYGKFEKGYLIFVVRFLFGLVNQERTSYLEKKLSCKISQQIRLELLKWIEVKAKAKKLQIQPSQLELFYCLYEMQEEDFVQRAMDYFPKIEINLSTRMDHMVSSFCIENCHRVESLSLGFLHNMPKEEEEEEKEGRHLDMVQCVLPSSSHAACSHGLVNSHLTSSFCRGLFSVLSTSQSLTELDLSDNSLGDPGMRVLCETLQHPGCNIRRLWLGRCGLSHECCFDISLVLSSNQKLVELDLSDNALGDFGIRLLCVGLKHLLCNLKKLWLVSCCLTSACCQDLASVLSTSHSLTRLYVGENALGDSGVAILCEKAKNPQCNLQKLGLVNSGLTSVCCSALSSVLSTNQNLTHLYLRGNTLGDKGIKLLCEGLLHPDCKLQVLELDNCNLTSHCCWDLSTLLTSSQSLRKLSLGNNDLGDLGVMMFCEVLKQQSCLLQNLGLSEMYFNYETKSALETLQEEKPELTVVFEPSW
To generate HMDM, human monocytes are isolated from buffy coat blood using Ficoll-Plaque Plus (GE Healthcare) and density centrifugation. CD14^+ cell selection is performed using MACS magnetic beads (Miltenyl Biotec).
HMDM are seeded at 1×10^5/ml. […] Medium is removed and replaced with serum free medium (SFM) containing test compound 30 min prior to NLRP3 stimulation. […] ATP can be sourced from Sigma Aldrich, nigericin and MSU from Invivogen and LeuLeu-Ome from Chem-Impex International.
as §2
Consider `Cc1cnc(C(=O)NCCc2ccc(S(N)(=O)=O)cc2)cn1` [Glipizide precursor, reference compound], for which the negative-log IC50 (pIC50) is less than 4.30.

The same assay, now with this note: inhibition of IL-1β release, class symbols, read-out: Avg. IL-1β IC50 HMDM.
Regarding `COc1cc(NC(=O)NS(=O)(=O)c2cccc(C3(C(F)(F)F)N=N3)c2)c2ncccc2c1` [N-((6-methoxyquinolin-8-yl)carbamoyl)-3-(3-(trifluoromethyl)-3H-diazirin-3-yl)benzenesulfonamide], the pIC50 was greater than 4.30.
Take `CC(C)(O)c1ccnc(S(=O)(=O)NC(=O)Nc2c3c(cc4c2CCC4)CCC3)c1` [N-(1,2,3,5,6,7-hexahydro-s-indacen-4-ylcarbamoyl)-4-(2-hydroxypropan-2-yl)pyridine-2-sulfonamide]: the pIC50 was greater than 7.00.
Same read-out and setting: as for `CN(C)S(=O)(=O)c1cccc(S(=O)(=O)NC(=O)Nc2c3c(cc4c2CCC4)CCC3)c1` [N1-((1,2,3,5,6,7-hexahydro-s-indacen-4-yl)carbamoyl)-N3,N3-dimethylbenzene-1,3-disulfonamide], the figure is greater than 7.00; as for `O=C(Nc1c2c(cc3c1CCC3)CCC2)NS(=O)(=O)c1cccc(-n2cc(-c3ccccc3)nn2)c1` [N-((1,2,3,5,6,7-hexahydro-s-indacen-4-yl)carbamoyl)-3-(4-phenyl-1H-1,2,3-triazol-1-yl)benzenesulfonamide], greater than 5.00; as for `CC(C)c1cc(S(=O)(=O)NC(=O)Nc2c3c(cc4c2CCC4)CCC3)nn1C` [N-((1,2,3,5,6,7-hexahydro-s-indacen-4-yl)carbamoyl)-5-isopropyl-1-methyl-1H-pyrazole-3-sulfonamide], greater than 6.00.
Still for that read-out and setting: the same measure for `O=C(Nc1c2c(cc3c1CCC3)CCC2)NS(=O)(=O)c1ccc2c(c1)S(=O)(=O)CC2` [N-((1,2,3,5,6,7-hexahydro-s-indacen-4-yl)carbamoyl)-2,3-dihydrobenzo[b]thiophene-6-sulfonamide 1,1-dioxide]: greater than 6.00; for `CC(C)(O)c1coc(S(=O)(=O)NC(=O)Nc2c3c(cc4c2C(O)CC4)CCC3)c1` (centres unmarked) [N-((3-hydroxy-1,2,3,5,6,7-hexahydro-s-indacen-4-yl)carbamoyl)-4-(2-hydroxypropan-2-yl)furan-2-sulfonamide]: greater than 6.00.
Still for that read-out and setting: as for `O=C(Nc1c2c(cc3c1CCC3)CCC2)NS(=O)(=O)c1ccc(Cl)cc1` [4-chloro-N-((1,2,3,5,6,7-hexahydro-s-indacen-4-yl)carbamoyl)benzenesulfonamide], the figure is greater than 6.00; as for `O=C(Nc1c2c(cc3c1CCC3)CCC2)NS(=O)(=O)c1cc2ccccc2o1` [N-((1,2,3,5,6,7-hexahydro-s-indacen-4-yl)carbamoyl)benzofuran-2-sulfonamide], greater than 6.00; as for `O=C(Nc1c2c(cc3c1CCC3)CCC2)NS(=O)(=O)c1cccc(OC(F)F)c1` [3-(difluoromethoxy)-N-((1,2,3,5,6,7-hexahydro-s-indacen-4-yl)carbamoyl)benzenesulfonamide], greater than 6.00.
For the compound `CC(C)c1cc(Cl)cc(C(C)C)c1NC(=O)NS(=O)(=O)c1ccn(C(C)C)n1` [sodium ((4-chloro-2,6-diisopropylphenyl)carbamoyl)((1-isopropyl-1H-pyrazol-3-yl)sulfonyl)amide], the negative-log IC50 (pIC50) is greater than 6.00.
Same read-out and setting: as for `O=C(Nc1c2c(cc3c1CCC3)CCC2)NS(=O)(=O)c1ccn(Cc2ccccc2)n1` [1-benzyl-N-((1,2,3,5,6,7-hexahydro-s-indacen-4-yl)carbamoyl)-1H-pyrazole-3-sulfonamide], the figure is greater than 5.00; as for `O=C(Nc1c2c(cc3c1CCC3)CCC2)NS(=O)(=O)c1cc(C(F)(F)F)ccn1` [N-((1,2,3,5,6,7-hexahydro-s-indacen-4-yl)carbamoyl)-4-(trifluoromethyl)pyridine-2-sulfonamide], greater than 7.00; as for `O=C(Nc1cccc2ncccc12)NS(=O)(=O)c1cccc(C2(C(F)(F)F)N=N2)c1` [N-(quinolin-5-ylcarbamoyl)-3-(3-(trifluoromethyl)-3H-diazirin-3-yl)benzenesulfonamide], greater than 4.30.
